Reference: patent US20100204109A1, “USE OF C-TYPE NATRIURETIC PEPTIDE, ALONE OR IN COMBINATION WITH NEUROPEPTIDE AF, AS A THERAPEUTIC AGENT” (priority 2007, published 2010)
Ends that are not written are not given here.

Assays:
[1] = tested on: HIV-1IIIB
[2] = tested on: HUVEC; assay: Endothelial tube formation assay; format: cell-based, human; details: 10 micrograms per ml, 20 hours, average tubule length
Source text: Positive control was vehicle only. […] Raw data were expressed as average tubule lenghs in pixels±standard deviation.

[3] = tested on: HCMV strain AD169; assay: HCMV plaque formation assay in MRC-5 cells; details: for inhibition of HCMV plaque formation as compared to the virus control experiment: 10 micrograms per ml, MRC-5 cells, 7-10 days
[4] = tested on: spleen cells of Ovalbumin-immunized Balb/c mice; assay: Th1/Th2 cytokine profiling assay; format: cell-based, mouse; details: 10 micrograms per ml; Ovalbumin restimulation; 72 hours supernatant
Source text: Results from Th1/Th2 Cytokine assay:

[5] = tested on: hepatitis B virus (HBV) ayw strain; assay: HBV experimental assay system, HepG2-2.2.15, secreted HBV DNA by TaqMan PCR; format: cell-based; details: 10 micrograms per ml, six days, HBV DNA in supernatant

Compound | antiviral activity of positive control compounds [1] | inhibition of the tube formation of human endothelial cells [2] | inhibition of HCMV plaque formation as compared to the virus control experiment [3] | inhibition of HBV replication as compared to the virus control infection [5] | other results
Cc1cn([C@H]2C[C@H](N=[N+]=[N-])[C@@H](CO)O2)c(=O)[nH]c1=O [AZT] | expected levels of antiviral activity |  |  |  | 
Ala-Gly-Glu-Gly-Leu-Asn-Ser-Gln-Phe-Trp-Ser-Leu-Ala-Ala-Pro-Gln-Arg-Phe-NH2 (AGEGLNSQFWSLAAPQRF-NH2) [Peptide 2] |  | did not inhibit | did not inhibit | 42.6% | IFNγ spleen cells; TH1 response (% of control) [4]: 84.8 % of control; IL-2 spleen cells (% of control) [4]: 0.0 % of control; IL-4 spleen cells; TH2 response (% of control) [4]: 0.0 % of control; IL-5 spleen cells; TH2 response (% of control) [4]: 52.2 % of control; TNF-a spleen cells; TH1 response (% of control) [4]: 92.1 % of control
Asp-Leu-Arg-Val-Asp-Thr-Lys-Ser-Arg-Ala-Ala-Trp-Ala-Arg-Leu-Leu-Gln-Glu-His-Pro-Asn-Ala-Arg-Lys-Tyr-Lys-Gly-Ala-Asn-Lys-Lys-Gly-Leu-Ser-Lys-Gly-Cys-Phe-Gly-Leu-Lys-Leu-Asp-Arg-Ile-Gly-Ser-Met-Ser-Gly-Leu-Gly-Cys-OH (DLRVDTKSRAAWARLLQEHPNARKYKGANKKGLSKGCFGLKLDRIGSMSGLGC-OH; cysteine pairing not given here) [Peptide 1] |  | 34% | did not inhibit | 65.7% | 
Nc1nc(O)c2ncn(COC(CO)CO)c2n1 [Ganciclovir, reference compound] |  |  |  |  | antiviral activity of positive control compound ([3]; positive control, HCMV AD169 in MRC-5 cells): expected levels of antiviral activity
CC(C)(C)NC(=O)[C@@H]1CN(Cc2cccnc2)CCN1C[C@@H](O)C[C@@H](Cc1ccccc1)C(=O)N[C@H]1c2ccccc2C[C@H]1O [indinavir] | expected levels of antiviral activity |  |  |  | 
